Three compounds from US20040259179A1, “Sterol markers as diagnostic tools in the prevention of atherosclerotic diseases and as tools to aid in the selection of agents to be used for the prevention and treatment of atherosclerotic disease” (priority 2003, published 2004) can be followed below.

Type in all cases: in vivo, human
Test [1] has as its system patients with primary hypercholesterolemia. The experiment in a line: LDL-C and other lipid parameters by treatment, EZE/ATORVA trial (Example 3). As to conditions: 12 weeks daily treatment, EZE 10 mg, pooled ATORVA 10-80 mg; for Triglycerides (median) % Change (±SE) from Baseline: median and SE from raw data. The protocol:
(§1) A post-hoc analysis of a randomized, double-blind, placebo-controlled trial of primary hypercholesterolemia patients (LDL-C 145-250 mg/dl and TG<350 mg/dl) was conducted. Baseline and endpoint samples of 397 patients were analyzed by GCMS
In this trial, following a 4 week placebo lead-in/diet phase, patients with primary hypercholesterolemia (LDL-C 3.8-6.5 mmol/L [145-250 mg/dL] and TG≦4 mmol/L [350 mg/dL]) were randomized to one of the following daily treatments for 12 weeks: […]

For test [2] the test system is unchanged. The test can be described thus: Non-cholesterol sterol analysis of plasma by GC-MS, EZE/ATORVA trial (Example 3). Conditions: for effect on concentrations of sitosterol and campesterol (baseline to endpoint), in words: FIG. 11; for effect on concentrations of sitosterol and campesterol (baseline to endpoint), in words / effect on concentrations of cholesterol precursors lathosterol and desmosterol (baseline to endpoint), in words / effect on ratios of sitosterol:cholesterol and campesterol:cholesterol, in words / effect on ratios of lathosterol:cholesterol and desmosterol:cholesterol, in words: pooled doses, 12 weeks; for effect on concentrations of cholesterol precursors lathosterol and desmosterol (baseline to endpoint), in words: FIG. 13; for effect on ratios of sitosterol:cholesterol and campesterol:cholesterol, in words: Table in FIG. 11; for effect on ratios of lathosterol:cholesterol and desmosterol:cholesterol, in words: Table in FIG. 13; for Campesterol Noncholesterols:Cholesterol Ratio: Mean change / Desmosterol Noncholesterols:Cholesterol Ratio: Mean change / Lathosterol Noncholesterols:Cholesterol Ratio: Mean change / Sitosterol Noncholesterols:Cholesterol Ratio: Mean change / Campesterol % chng LSmean (absolute sterol concentrations) / Desmosterol % chng LSmean (absolute sterol concentrations) / Lathosterol % chng LSmean (absolute sterol concentrations) / Sitosterol % chng LSmean (absolute sterol concentrations): baseline to endpoint, 12 weeks daily treatment, EZE 10 mg, ATORVA pooled; for Campesterol % chng LSmean (absolute sterol concentrations) / Desmosterol % chng LSmean (absolute sterol concentrations) / Lathosterol % chng LSmean (absolute sterol concentrations) / Sitosterol % chng LSmean (absolute sterol concentrations): plasma. As for the experimental part:
as §1
In this trial, following a 4 week placebo lead-in/diet phase, patients with primary hypercholesterolemia (LDL-C 3.8-6.5 mmol/L [145-250 mg/dL] and TG≦4 mmol/L [350 mg/dL]) were randomized to one of the following daily treatments for 12 weeks:
Of 628 patients randomized to treatment in the original study, 397 (63%) had evaluable −70° C. plasma samples for both baseline and endpoint visits.
Concentrations of non-cholesterol sterols were measured by gas chromatography-mass spectrometry (GC-MS).
The primary efficacy parameter was mean percent change in plasma sitosterol concentration from baseline to endpoint comparing EZE/ATORVA (pooled across doses) versus ATORVA (pooled across doses). Other efficacy parameters included mean percent changes in campesterol, lathosterol and desmosterol concentrations as well as mean changes in the ratios of each of these sterols to cholesterol.
(§2) Two-tailed testing was conducted at a=0.05. To compare treatment effects on sterol concentrations and ratios, an ANCOVA model including the fixed effects of treatment, dose, and dose-by-treatment interaction was used with the baseline value as the covariate.

The test system is the same in test [3]. The test can be described thus: LDL-C and other lipid parameters by treatment, EZE/SIMVA trial (Example 2). As to conditions: 12 weeks daily treatment, EZE 10 mg, pooled SIMVA 10-80 mg; for Triglycerides (median) % Change (±SE) from Baseline: median and SE from raw data. The protocol: (§3) A post-hoc analysis of a randomized, double-blind, placebo-controlled trial of primary hypercholesterolemia patients (LDL-C 145-250 mg/dl and TG≦350 mg/dl) was conducted to examine the effects of 12 weeks of daily treatment with ezetimibe (EZE) 10 mg, simvastatin (SIMVA) pooled doses 10-80 mg, or EZE 10 mg/SIMVA 10-80 mg (EZE/SIMVA) coadministration (pooled) on concentrations of phytosterols (sitosterol and campesterol) and cholesterol precursors (lathosterol and desmosterol). Baseline and endpoint plasma samples of 578 patients were analyzed by GC-mass spectrometry
Following a 4 week placebo lead-in/diet phase, patients with primary hypercholesterolemia (LDL-C 145-250 mg/dL and TG≦350 mg/dL) were randomized on one of the following daily treatments for 12 weeks: […]

Test [4] shares this test system. The test can be described thus: Non-cholesterol sterol analysis of plasma by GC-MS, EZE/SIMVA trial (Example 2). Conditions: for effect on concentrations of sitosterol and campesterol (baseline to endpoint), in words: FIG. 6; for Campesterol Ratio: Mean change (sterol:cholesterol) / Desmosterol Ratio: Mean change (sterol:cholesterol) / Lathosterol Ratio: Mean change (sterol:cholesterol) / Sitosterol Ratio: Mean change (sterol:cholesterol) / Campesterol % change (Mean % change) / Desmosterol % change (Mean % change) / Lathosterol % change (Mean % change) / Sitosterol % change (Mean % change): baseline to endpoint, 12 weeks daily treatment, EZE 10 mg; for Campesterol Ratio: Mean change (sterol:cholesterol) / Desmosterol Ratio: Mean change (sterol:cholesterol) / Lathosterol Ratio: Mean change (sterol:cholesterol) / Sitosterol Ratio: Mean change (sterol:cholesterol) / Campesterol % change (Mean % change) / Desmosterol % change (Mean % change) / Lathosterol % change (Mean % change): SIMVA pool of all doses; for Campesterol % change (Mean % change) / Desmosterol % change (Mean % change) / Lathosterol % change (Mean % change) / Sitosterol % change (Mean % change): plasma concentration; for Sitosterol % change (Mean % change): SIMVA pool of all doses 10-80 mg. The protocol:
as §3
Following a 4 week placebo lead-in/diet phase, patients with primary hypercholesterolemia (LDL-C 145-250 mg/dL and TG≦350 mg/dL) were randomized on one of the following daily treatments for 12 weeks:
Of 668 patients randomized to treatment in the original study, 578 (86%) had evaluable −70° C. plasma samples for both baseline and endpoint visits. Concentrations of non-cholesterol sterols were measured by gas chromatography-mass spectrometry (GC-MS).
The primary efficacy parameter was mean percent change in plasma sitosterol concentration from baseline to endpoint comparing EZE/SIMVA (pooled across doses) versus SIMVA monotherapy (pooled across doses). Other efficacy parameters included mean percent changes in campesterol, lathosterol and desmosterol concentrations as well as mean changes in the ratios of each of these sterols to cholesterol.
as §2

Marks after values point to notes of the source that are not given here.

As to `CC(C)c1c(C(=O)Nc2ccccc2)c(-c2ccccc2)c(-c2ccc(F)cc2)n1CC[C@@H](O)C[C@@H](O)CC(=O)O` [ATORVA, atorvastatin], in test [1], the “HDL-C LS Mean % Change (±SE) from Baseline” value (“HDL-C LS Mean % Change (±SE)” below) is given as 5.21 (0.85) %, the “LDL-C LS Mean % Change (±SE) from Baseline” value (“LDL-C LS Mean % Change (±SE)” for short) was −43.56 (1.02) %, the “Total Cholesterol LS Mean % Change (±SE) from Baseline” value is −32.96 (0.81) % and the “Triglycerides (median) % Change (±SE) from Baseline” value is reported as −25.83 (1.80) %. In addition, in test [2], the “effect on concentrations of sitosterol and campesterol (baseline to endpoint), in words” value is on record as “significantly increased”; the “effect on concentrations of cholesterol precursors lathosterol and desmosterol (baseline to endpoint), in words” value was “large, significant reductions”; the “effect on ratios of sitosterol:cholesterol and campesterol:cholesterol, in words” value is “significantly increased”; the “effect on ratios of lathosterol:cholesterol and desmosterol:cholesterol, in words” value is reported as “significantly reduced”. In test [2], the “Campesterol Noncholesterols:Cholesterol Ratio: Mean change” value is recorded as 128*^† 10^2 mmol/mol, the “Desmosterol Noncholesterols:Cholesterol Ratio: Mean change” value is listed as −34.5*^† 10^2 mmol/mol, the “Lathosterol Noncholesterols:Cholesterol Ratio: Mean change” value was −69.8*^† 10^2 mmol/mol and the “Sitosterol Noncholesterols:Cholesterol Ratio: Mean change” value was 77.4*^† 10^2 mmol/mol. Moreover, in test [2], the “Campesterol % chng LSmean (absolute sterol concentrations)” value is reported as 10.1^† %, the “Desmosterol % chng LSmean (absolute sterol concentrations)” value is on record as −55.4*^† %, the “Lathosterol % chng LSmean (absolute sterol concentrations)” value is given as −69.0*^† % and the “Sitosterol % chng LSmean (absolute sterol concentrations)” value is given as 16.1^† %.
As to `O=C1[C@H](CC[C@H](O)c2ccc(F)cc2)[C@@H](c2ccc(O)cc2)N1c1ccc(F)cc1` [EZE, ezetimibe], in test [3], the “HDL-C LS Mean % Change (±SE)” value stood at 5.5 ± 1.6%, the “LDL-C LS Mean % Change (±SE)” value is −18.5 ± 1.8%, the “Total Cholesterol LS Mean % Change (±SE) from Baseline” value is given as −13.5 ± 1.4% and the “Triglycerides (median) % Change (±SE) from Baseline” value is reported as −8.6 ± 3.9%. For the same compound, in test [1], the “HDL-C LS Mean % Change (±SE)” value is 5.36 (1.71) %, the “LDL-C LS Mean % Change (±SE)” value is −17.10 (2.06) %, the “Total Cholesterol LS Mean % Change (±SE) from Baseline” value was −12.97 (1.63) % and the “Triglycerides (median) % Change (±SE) from Baseline” value is listed as −2.86 (4.54) %. Further, in test [2], the “effect on concentrations of sitosterol and campesterol (baseline to endpoint), in words” value is given as “large, significant reductions”; the “effect on concentrations of cholesterol precursors lathosterol and desmosterol (baseline to endpoint), in words” value was “significantly increased”; the “effect on ratios of sitosterol:cholesterol and campesterol:cholesterol, in words” value is given as “significantly reduced”; the “effect on ratios of lathosterol:cholesterol and desmosterol:cholesterol, in words” value was “increased”. For the same compound, in test [2], the “Campesterol Noncholesterols:Cholesterol Ratio: Mean change” value is recorded as −151* 10^2 mmol/mol, the “Desmosterol Noncholesterols:Cholesterol Ratio: Mean change” value is 38.1 10^2 mmol/mol, the “Lathosterol Noncholesterols:Cholesterol Ratio: Mean change” value is listed as 56.2* 10^2 mmol/mol and the “Sitosterol Noncholesterols:Cholesterol Ratio: Mean change” value is −70.1* 10^2 mmol/mol. In addition, in test [2], the “Campesterol % chng LSmean (absolute sterol concentrations)” value was −58.2* %, the “Desmosterol % chng LSmean (absolute sterol concentrations)” value is given as 20.6* %, the “Lathosterol % chng LSmean (absolute sterol concentrations)” value is recorded as 34.5* % and the “Sitosterol % chng LSmean (absolute sterol concentrations)” value is given as −53.8* %. In test [4] (pooled doses, 12 weeks), the “effect on concentrations of sitosterol and campesterol (baseline to endpoint), in words” value is on record as “large, significant reductions”. In addition, the “effect on concentrations of cholesterol precursors lathosterol and desmosterol (baseline to endpoint), in words” value in test [4] (FIG. 8, pooled doses, 12 weeks) is “increased”. Besides, the “effect on ratios of sitosterol:cholesterol and campesterol:cholesterol, in words” value in test [4] (Table in FIG. 6, pooled doses, 12 weeks) is reported as “significantly reduced”. In test [4] (Table in FIG. 8, pooled doses, 12 weeks), the “effect on ratios of lathosterol:cholesterol and desmosterol:cholesterol, in words” value is recorded as “significantly increased”. Besides, in test [4], the “Campesterol Ratio: Mean change (sterol:cholesterol)” value is listed as −78.6* 10^2 mmol/mol, the “Desmosterol Ratio: Mean change (sterol:cholesterol)” value is reported as 25.7* 10^2 mmol/mol, the “Lathosterol Ratio: Mean change (sterol:cholesterol)” value is on record as 36.8* 10^2 mmol/mol and the “Sitosterol Ratio: Mean change (sterol:cholesterol)” value is −37.8* 10^2 mmol/mol. Besides, in test [4], the “Campesterol % change (Mean % change)” value is given as −50.5* %, the “Desmosterol % change (Mean % change)” value was determined as 16.1%, the “Lathosterol % change (Mean % change)” value is listed as 35.5* % and the “Sitosterol % change (Mean % change)” value is −46.5* %.
With `CCC(C)(C)C(=O)O[C@H]1C[C@@H](C)C=C2C=C[C@H](C)[C@H](CC[C@@H]3C[C@@H](O)CC(=O)O3)[C@H]21` [SIMVA, simvastatin], in test [3], the “HDL-C LS Mean % Change (±SE)” value stood at 7.2 ± 0.8%, the “LDL-C LS Mean % Change (±SE)” value is given as −37.1 ± 0.9%, the “Total Cholesterol LS Mean % Change (±SE) from Baseline” value is reported as −26.8 ± 0.7% and the “Triglycerides (median) % Change (±SE) from Baseline” value is reported as −20.4 ± 1.5%. The “effect on concentrations of sitosterol and campesterol (baseline to endpoint), in words” value in test [4] (pooled doses, 12 weeks) is reported as “no significant effect”. Further, in test [4], the “Campesterol Ratio: Mean change (sterol:cholesterol)” value is recorded as 39.8* 10^2 mmol/mol, the “Desmosterol Ratio: Mean change (sterol:cholesterol)” value is −22.8* 10^2 mmol/mol, the “Lathosterol Ratio: Mean change (sterol:cholesterol)” value is −37.8* 10^2 mmol/mol and the “Sitosterol Ratio: Mean change (sterol:cholesterol)” value is listed as 21.4* 10^2 mmol/mol. Besides, in test [4], the “Campesterol % change (Mean % change)” value is given as −1.6* %, the “Desmosterol % change (Mean % change)” value is −48.0* %, the “Lathosterol % change (Mean % change)” value is −53.5* % and the “Sitosterol % change (Mean % change)” value is −3.3* %.
